These are literature values, as cited in patent US20190275033A1 (Boehringer Ingelheim International GmbH, priority 2016, published 2019).

The data set has as its system IPF patients. Conditions: cited from earlier work.

On to `Cc1ccc(=O)n(-c2ccccc2)c1` [pirfenidone, 5-methyl-1-phenyl-2(1H)-Pyridinone], for which, where the note is “ASCEND Phase III trial”, the “primary endpoint of change from baseline FVC % predicted” value is “met the primary endpoint”. Also, the “primary FVC lung function endpoint” value (international Phase III CAPACITY program) is listed as “efficacy on the primary FVC lung function endpoint in only one of two confirmatory trials”. For the same molecule, the “decline of vital capacity” value (two local trials, Japan) was “reduced decline”.
